# From BindingDB's records for doi:10.1016/j.bioorg.2015.11.002 (Government College University, 2016)
# What was measured:
# [1] = target: Acetylcholinesterase (Homo sapiens, UniProt P22303); experiment: Acetylcholinesterase Assay; settings: pH 7.7
# Description: The AChE inhibition activity was determined according to the Ellman's method with slight modifications. Total volume of the reaction mixture was 100 µL. It contained 60 µL Na2HPO4 buffer with concentration of 50 mM and pH 7.7. Ten µL test compound (0.5 mM well-1) was added, followed by the addition of 10 µL (0.005 unit well-1) enzyme. The contents were mixed and preread at 405 nm. Then contents were pre-incubated for 10 min at 37 °C. The reaction was initiated by the addition of 10 µL of 0.5 mM well-1 substrate (acetylthiocholine iodide), followed by the addition of 10 µL DTNB (0.5 mM well-1). After 30 min of incubation at 37 °C, absorbance was measured at 405 nm. Synergy HT (BioTek, USA) 96-well plate reader was used in all experiments. All experiments were carried out with their respective controls in triplicate.
# [2] = target: Cholinesterase (Homo sapiens, UniProt P06276); experiment: Butyrylcholinesterase Assay; settings: pH 7.7
# Cholinesterase, sequence (P06276 whole entry): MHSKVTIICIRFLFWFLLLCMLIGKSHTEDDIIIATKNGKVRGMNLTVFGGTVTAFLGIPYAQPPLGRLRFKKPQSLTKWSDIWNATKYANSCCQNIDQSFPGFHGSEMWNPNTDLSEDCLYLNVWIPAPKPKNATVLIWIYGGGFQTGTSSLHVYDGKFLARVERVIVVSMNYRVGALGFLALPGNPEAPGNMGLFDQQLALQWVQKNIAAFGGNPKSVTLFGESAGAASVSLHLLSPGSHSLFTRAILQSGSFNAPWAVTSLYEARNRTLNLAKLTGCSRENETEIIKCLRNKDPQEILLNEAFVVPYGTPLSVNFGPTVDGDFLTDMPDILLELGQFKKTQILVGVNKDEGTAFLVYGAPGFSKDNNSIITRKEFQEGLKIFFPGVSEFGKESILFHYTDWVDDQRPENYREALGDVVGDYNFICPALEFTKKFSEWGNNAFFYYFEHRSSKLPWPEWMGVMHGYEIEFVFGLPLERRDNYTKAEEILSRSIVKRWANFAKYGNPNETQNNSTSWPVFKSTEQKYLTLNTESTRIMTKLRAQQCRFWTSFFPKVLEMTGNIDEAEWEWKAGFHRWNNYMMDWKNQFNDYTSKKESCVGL
# Description: The butyrylcholinesterase (BChE) inhibition activity was determined according to the Ellman's method with minor modifications. Total volume of the reaction mixture was 100 µL containing 60 µL, Na2HPO4 buffer, 50 mM and pH 7.7. Ten µL test compound 0.5 mM well-1, followed by the addition of 10 µL (0.5 unit well-1)BChE. […] The reaction was initiated by the addition of 10 µL of 0.5 mM well-1 substrate (butyrylthiocholine bromide) followed by the addition of 10 µL DTNB, 0.5 mM well-1. […] Synergy HT (BioTek, USA) 96-well plate reader was used in all experiments. All experiments were carried out with their respective controls in triplicate.
# Acetylcholinesterase, sequence (P22303 whole entry): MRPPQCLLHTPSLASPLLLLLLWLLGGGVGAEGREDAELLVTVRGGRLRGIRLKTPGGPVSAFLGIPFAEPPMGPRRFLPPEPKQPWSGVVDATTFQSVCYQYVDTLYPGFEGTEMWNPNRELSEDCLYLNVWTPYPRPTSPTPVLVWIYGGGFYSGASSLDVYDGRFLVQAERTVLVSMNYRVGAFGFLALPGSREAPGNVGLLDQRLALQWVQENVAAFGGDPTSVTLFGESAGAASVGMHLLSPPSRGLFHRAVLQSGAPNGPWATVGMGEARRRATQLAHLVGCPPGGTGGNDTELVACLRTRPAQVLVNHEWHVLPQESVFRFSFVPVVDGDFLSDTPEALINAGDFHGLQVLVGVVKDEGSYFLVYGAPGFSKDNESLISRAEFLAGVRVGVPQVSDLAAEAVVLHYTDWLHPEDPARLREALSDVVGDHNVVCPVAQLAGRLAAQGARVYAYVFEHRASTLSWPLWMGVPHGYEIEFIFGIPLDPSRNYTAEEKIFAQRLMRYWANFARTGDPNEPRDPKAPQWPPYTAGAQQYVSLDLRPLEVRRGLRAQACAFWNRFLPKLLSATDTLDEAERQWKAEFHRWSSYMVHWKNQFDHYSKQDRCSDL
smiles,measurement,setting,value
"CC(C)N(c1ccc(-c2ccc(N(C(C)C)S(=O)(=O)c3ccccc3)cc2)cc1)S(=O)(=O)c1ccccc1 [N,N'-(biphenyl-4,4'-diyl)bis(N-isopropylbenzenesulfonamide) (3b)]",IC50,[1],73.2 µM
"CCCCCCN(c1ccc(-c2ccc(N(CCCCCC)S(=O)(=O)c3ccccc3)cc2)cc1)S(=O)(=O)c1ccccc1 [N,N'-(biphenyl-4,4'-diyl)bis(N-hexylbenzenesulfonamide) (3e)]",IC50,[1],78.6 µM
"CCCCCCN(c1ccc(-c2ccc(N(CCCCCC)S(=O)(=O)c3ccccc3)c(C)c2)cc1C)S(=O)(=O)c1ccccc1 [N,N'-(3,3'-dimethylbiphenyl-4,4'-diyl)bis(N-hexylbenzenesulfonamide) (3m)]",IC50,[1],49.6 µM
"CCCCCCCN(c1ccc(-c2ccc(N(CCCCCCC)S(=O)(=O)c3ccccc3)c(C)c2)cc1C)S(=O)(=O)c1ccccc1 [N,N'-(3,3'-dimethylbiphenyl-4,4'-diyl)bis(N-heptylbenzenesulfonamide) (3n)]",IC50,[1],43.2 µM
same,IC50,[2],48.7 µM
"Cc1cc(-c2ccc(N(Cc3ccccc3)S(=O)(=O)c3ccccc3)c(C)c2)ccc1N(Cc1ccccc1)S(=O)(=O)c1ccccc1 [N,N'-(3,3'-dimethylbiphenyl-4,4'-diyl)bis(N-benzylbenzenesulfonamide) (3p)]",IC50,[1],2.27 µM
same,IC50,[2],31.3 µM
"CCCCCCCN(c1ccc(-c2ccc(N(CCCCCCC)S(=O)(=O)c3ccccc3)cc2)cc1)S(=O)(=O)c1ccccc1 [N,N'-(biphenyl-4,4'-diyl)bis(N-heptylbenzenesulfonamide) (3f)]",IC50,[1],58.6 µM
"Cc1cc(-c2ccc(N(C(C)C)S(=O)(=O)c3ccccc3)c(C)c2)ccc1N(C(C)C)S(=O)(=O)c1ccccc1 [N,N'-(3,3'-dimethylbiphenyl-4,4'-diyl)bis(N-isopropylbenzenesulfonamide) (3j)]",IC50,[1],101 µM
"O=S(=O)(Nc1ccc(-c2ccc(NS(=O)(=O)c3ccccc3)cc2)cc1)c1ccccc1 [N,N'-(biphenyl-4,4'-diyl)dibenzenesulfonamide (2a)]",IC50,[1],42.3 µM
same,IC50,[2],203 µM
"CCCCCCCCCCCCCCCCN(c1ccc(-c2ccc(N(CCCCCCCCCCCCCCCC)S(=O)(=O)c3ccccc3)c(C)c2)cc1C)S(=O)(=O)c1ccccc1 [N,N'-(3,3'-dimethylbiphenyl-4,4'-diyl)bis(N-hexadecylbenzenesulfonamide) (3o)]",IC50,[1],2.45 µM
same,IC50,[2],24.7 µM
"CC(=O)N(c1ccc(-c2ccc(N(C(C)=O)S(=O)(=O)c3ccccc3)cc2)cc1)S(=O)(=O)c1ccccc1 [N,N'-(biphenyl-4,4'-diyl)bis(N-(phenylsulfonyl)acetamide) (3a)]",IC50,[1],103 µM
same,IC50,[2],156 µM
"Cc1cc(-c2ccc(NS(=O)(=O)c3ccccc3)c(C)c2)ccc1NS(=O)(=O)c1ccccc1 [N,N'-(3,3'-dimethylbiphenyl-4,4'-diyl)dibenzenesulfonamide (2b)]",IC50,[1],123 µM
"CC(=O)N(c1ccc(-c2ccc(N(C(C)=O)S(=O)(=O)c3ccccc3)c(C)c2)cc1C)S(=O)(=O)c1ccccc1 [N,N'-(3,3'-dimethylbiphenyl-4,4'-diyl)bis(N-(phenylsulfonyl)acetamide) (3i)]",IC50,[1],96.3 µM
"CCCCCN(c1ccc(-c2ccc(N(CCCCC)S(=O)(=O)c3ccccc3)c(C)c2)cc1C)S(=O)(=O)c1ccccc1 [N,N'-(3,3'-dimethylbiphenyl-4,4'-diyl)bis(N-pentylbenzenesulfonamide) (3l)]",IC50,[1],51.2 µM
"CCCCCN(c1ccc(-c2ccc(N(CCCCC)S(=O)(=O)c3ccccc3)cc2)cc1)S(=O)(=O)c1ccccc1 [N,N'-(biphenyl-4,4'-diyl)bis(N-pentylbenzenesulfonamide) (3d)]",IC50,[1],79.6 µM
"CCCCN(c1ccc(-c2ccc(N(CCCC)S(=O)(=O)c3ccccc3)cc2)cc1)S(=O)(=O)c1ccccc1 [N,N'-(biphenyl-4,4'-diyl)bis(N-butylbenzenesulfonamide) (3c)]",IC50,[1],8.41 µM
same,IC50,[2],125 µM
"O=S(=O)(c1ccccc1)N(Cc1ccccc1)c1ccc(-c2ccc(N(Cc3ccccc3)S(=O)(=O)c3ccccc3)cc2)cc1 [N,N'-(biphenyl-4,4'-diyl)bis(N-benzylbenzenesulfonamide) (3h)]",IC50,[1],61.6 µM
same,IC50,[2],35.8 µM
"CCCCN(c1ccc(-c2ccc(N(CCCC)S(=O)(=O)c3ccccc3)c(C)c2)cc1C)S(=O)(=O)c1ccccc1 [N,N'-(3,3'-dimethylbiphenyl-4,4'-diyl)bis(N-butylbenzenesulfonamide) (3k)]",IC50,[1],3.72 µM
same,IC50,[2],20.3 µM
"CCCCCCCCCCCCCCCCN(c1ccc(-c2ccc(N(CCCCCCCCCCCCCCCC)S(=O)(=O)c3ccccc3)cc2)cc1)S(=O)(=O)c1ccccc1 [N,N’-(biphenyl-4,4’-diyl)bis(N-hexadecylbenzenesulfonamide) (3g)]",IC50,[1],4.63 µM
same,IC50,[2],7.74 µM
